For data set [1], the target named is T1, Enoyl-acyl carrier reductase (Toxoplasma gondii) (UniProt Q6UCJ9).
T1 sequence (whole entry): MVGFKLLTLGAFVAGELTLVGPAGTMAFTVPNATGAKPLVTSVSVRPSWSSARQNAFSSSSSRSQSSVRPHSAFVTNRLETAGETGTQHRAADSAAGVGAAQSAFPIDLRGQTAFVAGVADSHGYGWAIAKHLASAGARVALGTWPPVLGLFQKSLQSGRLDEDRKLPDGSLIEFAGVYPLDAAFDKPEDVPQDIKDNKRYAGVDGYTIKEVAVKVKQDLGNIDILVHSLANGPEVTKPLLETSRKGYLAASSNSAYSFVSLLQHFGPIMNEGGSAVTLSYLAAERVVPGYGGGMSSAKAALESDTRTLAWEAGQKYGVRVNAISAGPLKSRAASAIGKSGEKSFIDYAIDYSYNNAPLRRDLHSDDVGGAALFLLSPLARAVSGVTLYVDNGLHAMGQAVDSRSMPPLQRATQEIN
The data set is described as follows: Inhibition of Toxoplasma gondii enoyl reductase assessed as conversion of trans-2-acyl-ACP to acyl-ACP at 1 uM.

Data set [2] deals with T2, Enoyl-acyl carrier reductase (Toxoplasma gondii, UniProt Q6UCJ9).
T2 sequence (Q6UCJ9 whole entry): T1 sequence (whole entry)
The data set is described as follows: Inhibition of Toxoplasma gondii enoyl reductase assessed as conversion of trans-2-acyl-ACP to acyl-ACP.

For data set [3], the system named is Toxoplasma gondii. The data set is described as follows: Antiparasitic activity against Toxoplasma gondii type 1 RH expressing YFP infected in HFF assessed as inhibition of [3H]-uracil incorporation after 72 hrs by liquid scintillation counting. Format: functional.
The subject of data set [4] is HFF. The data set is described as follows: Cytotoxicity against HFF assessed as inhibition of [3H]-thymidine incorporation after 24 hrs by […] assay. The class given is cell-based. Particulars: human. (In general: Incorporation of labelled thymidine or its analogues reports DNA synthesis.)
Data set [5] has as its system Toxoplasma gondii. In words: Antiparasitic activity against Toxoplasma gondii infected in BALB/c mouse assessed as reduction of parasite burden at 50 mg/kg, ip qd for 5 days. The class given is functional, organism-based. Further details: dose 50 mg/kg.
Data set [6] relates to Plasmodium falciparum. In words: Antimalarial activity against chloroquine-resistant Plasmodium falciparum TM91C235 after 24 hrs by SYBR Green I based fluorescence assay. The class given is functional, organism-based. Particulars: TM91C235, 24 h.
The test system of data set [7] is Plasmodium falciparum. In words: Antimalarial activity against Plasmodium falciparum D6 after 24 hrs by SYBR Green I based fluorescence assay. Particulars: D6, 24 h. Format: functional, organism-based.
For data set [8], the system named is Mus musculus. In words: Toxicity in Toxoplasma gondii infected BALB/c mouse assessed mortality at 75 mg/kg, ip qd for 5 days measured 7 day after infection. The arrangement: dose 75 mg/kg, route intraperitoneal. The following applies: in vivo, 168 h. The class given is organism-based.
The subject of data set [9] is Toxoplasma gondii. In words: Antiparasitic activity against Toxoplasma gondii infected in BALB/c mouse assessed as reduction of parasite burden at 25 mg/kg, ip qd for 5 days. The class given is functional, organism-based. Further details: dose 25 mg/kg.

Converted amounts (≈) assume the structure as drawn. The source made the active and inactive calls. The rule behind the calls is not given here.

Broadly, the inhibition is how much of the control response was suppressed. By IC50 is commonly meant the concentration that inhibits the measured activity by half. In general, MIC50 refers to an inhibitory concentration at the 50% level, which refers to growth in some studies and to a panel of isolates in others. Consider `CC(=O)N1CCN(Cc2ccc(Oc3ccc(Cl)cc3O)s2)CC1`, for which the inhibition in data set [1] is 73%. Moreover, the IC50 in data set [2] turned out to be 0.965 µM. Moreover, the MIC50 in data set [3] is 5 µM (≈ 1.83 µg/mL). Besides, in data set [4], the INH was above 10 µM.
Regarding `O=S(=O)(c1ccc(Oc2ccc(Cl)cc2O)cc1)N1CCCC1`, in data set [1], the inhibition was 78%. In [3], the MIC50 was 10 µM (≈ 3.54 µg/mL). In addition, the INH in [4] is above 10 µM.
On the same counts, the results for `CC(=O)N1CCN(C(=O)c2ccc(Oc3ccc(Cl)cc3O)o2)CC1` are 45%, above 10 µM and above 10 µM.
On the same counts, the results for `CC(C)(C)OC(=O)N1CCN(C(=O)c2ccc(Oc3ccc(Cl)cc3O)s2)CC1` are 76%, above 10 µM and above 10 µM.
Take `Cc1cc(NC(=O)c2ccc(Oc3ccc(Cl)cc3O)o2)no1`: the inhibition in data set [1] was 90%. Besides, the IC50 in data set [2] was found to be 0.058 µM. Further, in data set [3], the MIC50 is 10 µM (≈ 3.35 µg/mL). In data set [4], the INH is above 10 µM.
Turning to `CNC(=O)c1ccc(Oc2ccc(Cl)cc2O)o1`, the inhibition in data set [1] came to 46%. In addition, the MIC50 in data set [3] is above 10 µM. Besides, the INH in [4] was above 10 µM.
Turning to `Cn1cc(C(=O)Nc2ccc(Cl)cc2O)c(C(F)(F)F)n1`, in data set [1], the inhibition was determined as 27%. For the same molecule, in [3], the MIC50 is above 10 µM. In data set [4], the INH is above 10 µM.
In the case of `Oc1cc(Cl)ccc1Oc1ccc2ccccc2c1`, in data set [1], the inhibition was determined as 91%. Further, the IC50 in [2] was 0.041 µM. Besides, the MIC50 in data set [3] was 10 µM (≈ 2.71 µg/mL). Also, the INH in [4] is above 10 µM.
`CC(=O)N1CCN(c2ccc(Oc3ccc(Cl)cc3O)cc2)CC1`: the inhibition in data set [1] came out at 81%. Further, the IC50 in data set [2] was 0.225 µM; in data set [6] it was above 10 µg/mL; in data set [7] it was above 10 µg/mL. Further, the outcome in data set [5] was inactive. The MIC50 in data set [3] worked out at 1.5 µM (≈ 0.52 µg/mL). In addition, in [8], the Activity result was “Toxic”. For the same molecule, the INH in data set [4] was above 10 µM.
With `CN1CCN(c2ccc(Oc3ccc(Cl)cc3O)cc2)CC1`, the inhibition in data set [1] amounted to 25%. The INH in data set [4] is above 10 µM.
As to `O=C(O)c1ccc(Oc2ccc(Cl)cc2O)o1`, the inhibition in data set [1] is 79%. The MIC50 in data set [3] is above 10 µM. Further, the INH in [4] was above 10 µM.
Take `O=C(O)c1ccc(Oc2ccc(Cl)cc2O)s1`: in data set [1], the inhibition amounted to 48%. The MIC50 in data set [3] came to 10 µM (≈ 2.71 µg/mL). For the same molecule, the INH in data set [4] was above 10 µM.
Taken in the same sequence, the figures for `Oc1cc(Cl)ccc1Oc1ccc(N2CCOCC2)cc1` were 74%, above 10 µM and above 10 µM.
Turning to `CCNC(=O)c1ccc(Oc2ccc(Cl)cc2O)s1`, in data set [1], the inhibition came out at 75%. The INH in data set [4] was determined as 10 µM.
`Oc1cc(Cl)ccc1Oc1ccc(Cl)cc1Cl` [TRICLOSAN]: the outcome in [9] was Active. For the same molecule, the MIC50 in data set [3] amounted to 5 µM (≈ 1.45 µg/mL). Also, in data set [4], the INH was above 10 µM.
In the case of `CN1CCN(Cc2ccc(Oc3ccc(Cl)cc3O)cc2)CC1`, the inhibition in [1] was found to be 32%. For the same molecule, the MIC50 in data set [3] was above 10 µM. The INH in data set [4] was above 10 µM.
Regarding `O=C(c1ccc(Oc2ccc(Cl)cc2O)s1)N1CCNCC1`, the inhibition in data set [1] was 60%. Moreover, the MIC50 in data set [3] is above 10 µM. In addition, the INH in data set [4] was above 10 µM.
Turning to `O=S(=O)(c1ccc(Oc2ccc(Cl)cc2O)cc1)N1CCCCC1`, in [1], the inhibition was determined as 81%. For the same molecule, the MIC50 in [3] amounted to 10 µM (≈ 3.68 µg/mL). For the same molecule, the INH in data set [4] is above 10 µM.
In the case of `Oc1cc(Cl)ccc1Oc1ccc(C(F)(F)F)cc1Cl`, in data set [1], the inhibition came to 95%. Further, the IC50 in [2] was determined as 0.03 µM. In addition, the MIC50 in data set [3] was 4 µM (≈ 1.29 µg/mL). Further, the INH in data set [4] is above 10 µM.
On the same counts, the results for `Oc1cc(Cl)ccc1Oc1ccc2ncccc2c1` are 87%, 0.135 µM, 7.5 µM (≈ 2.04 µg/mL) and above 10 µM.

The values are drawn from ChEMBL document CHEMBL2346588, “Design, synthesis, and biological activity of diaryl ether inhibitors of Toxoplasma gondii enoyl reductase” (Bioorg Med Chem Lett, 2013).
